# Experimental data as given in patent US20120065181A1, “METHOD OF PROVIDING NEUROPROTECTION USING SUBSTITUTED PORPHYRINS” (priority 2009, published 2012).
# Key:
# [1] = system: subarachnoid hemorrhage (SAH) in mice; assay: Neurologic evaluation after murine subarachnoid hemorrhage (endovascular perforation); format: in vivo
# Source text: At completion of the predefined recovery interval, rats underwent a neurologic examination to evaluate sensorimotor function. The neurological scoring system evaluates four different functions (general status, simple motor deficit, complex motor deficit, and sensory deficit). The score given to each animal (by an observer blinded to group assignment) was the sum of all four individual scores, 0 being the minimum (best) score and 48 being the maximum (worst) score. This examination was developed combining features from several neurologic evaluations reported for rat MCAO and has been used in two long-term MCAO outcome studies to assess for differences in treatment outcome (Yokoo et al. Anesth Analg. 2004; 99:896-903; Sakai et al. Anesthesiology. 2007; 106:92-99; discussion 98-10.) Values from this scoring system correlate well with total infarct volume in rats allowed to survive 8 weeks post-MCAO (R2 value of 0.78, P=0.006, Sakai et al.) as well as 2 and 8 weeks post-MCAO (Yokoo et al.). […]
# Seventy-two hrs post-SAH, mice were neurologically evaluated as described above, with the experimenter blinded to group assignment. Normal neurologic function was scored as 0 with the maximal deficit score=48. […]
# [2] = system: cerebral arteries of mice post-SAH; assay: Arterial cross-sectional diameter by intraluminal arterial casting after murine SAH; format: in vivo; conditions: 72 hrs post-SAH
# Method: Male mice (body weight=20-25 gm) were anesthetized with isoflurane and subjected to endovascular perforation of the right anterior cerebral artery just distal to the middle cerebral artery bifurcation. Mice were allowed to recover from anesthesia and randomly assigned to treatment ([…] MnTnHex-2-PyP^5+ twice per day, i.p. with treatment begun 60 min post-SAH, n=15) and vehicle (saline 0.1 ml twice a day, n=15) groups.
# The mice were anesthetized and subjected to intraluminal arterial casting for later determination of arterial cross-sectional diameter. Subarachnoid clot size was graded using a standardized scoring system.
# Three mice died in the vehicle group (2 died 3 days post-SAH, 1 died 2 days post-SAH). Neurologic scores in surviving mice and clot size were compared with the Mann-Whitney U statistic. Vessel diameters were compared with the Student's t test.
# [3] = system: rats subjected to 90 min MCAO; assay: Neurologic score after 90 min middle cerebral artery occlusion (MCAO); format: in vivo, rat; conditions: then twice daily s.c. for 7 days
# Source text: (§1) Male Wistar rats (250-275 gm; Harlan Sprague Dawley, Inc. Indianapolis, Ind.) were anesthetized with 64-mg/kg intraperitoneal sodium pentobarbital and positioned in a stereotactic head frame. The skin was infiltrated with 1.0% lidocaine and a midline scalp incision was made. A burr hole was drilled over the left hemisphere, 7.2 mm anterior to the interauralline and 1.4 mm lateral to the sagittal suture. An intracerebroventricular (ICV) cannula (33 gauge) was positioned with the tip in the left lateral ventricle and fixed in place with screws and cyanoacrylate. The incision was closed with suture around this assembly. After emergence from anesthesia, the animals were returned to their cages with free access to water and food.
# Following 2-3 days recovery, rats were allowed access to water but fasted from food for 12 hours to standardize glycemic state. Rats were then anesthetized with isoflurane in O2. Following tracheal intubation, the lungs were mechanically ventilated to maintain normocapnia. A 22-g needle thermistor was percutaneously placed adjacent to the skull beneath the temporalis. Pericranial temperature was servoregulated at 37.5±0.1° C. by surface heating or cooling. […]
# Rats were subjected to 90 min middle cerebral artery occlusion. […] The doses were repeatedly twice daily as subcutaneous injections for 7 days after which neurologic function was assessed as described above. […]
# [4] = system: rats subjected to 90 min MCAO; assay: Cerebral infarct volume after 90 min MCAO; format: in vivo, rat; conditions: 7 days after MCAO
# Source text: as §1
# Following 2-3 days recovery, rats were allowed access to water but fasted from food for 12 hours to standardize glycemic state. Rats were then anesthetized with isoflurane in O2. Following tracheal intubation, the lungs were mechanically ventilated to maintain normocapnia. A 22-g needle thermistor was percutaneously placed adjacent to the skull beneath the temporalis. Pericranial temperature was servoregulated at 37.5±0.1° C. by surface heating or cooling. The inspired isoflurane concentration was adjusted to 1.0-1.5% in 50% O2/balance N2. The tail artery was cannulated. The animals were then prepared for MCAO as previously described [Mackensen et al. J. Neurosci. 21:4582-4592, 2001; Longa et al. Stroke 20:84-91, 1989]. A midline cervical incision was made and the right common carotid artery was identified. […] The internal carotid artery (ICA) was dissected distally until the origin of the pterygopalatine artery was visualized. Following surgical preparation, a 20 min interval was allowed for physiologic stabilization.
# Five min before MCAO onset, heparin (50 IU intra-arterial) was given to prevent intra-arterial thrombosis. A 0.25-mm diameter nylon monofilament, prepared with a silicone tip, was inserted into the ECA stump and passed distally through the ICA (20 mm from carotid bifurcation) until resistance was felt and the filament was secured. At MCAO onset, isoflurane was reduced to 0.8-1.0%.
# After 90 min of MCAO, the occlusive filament was removed. The anesthetic state and pericranial temperature regulation were continued for an additional 100 min. The tail artery catheter was removed and the wounds were closed with suture. Isoflurane was discontinued. Upon recovery of the righting reflex, the tracheas were extubated and the animals were placed in an O2 enriched environment (FIO2=50%) for 1 hour. Animals were then randomized to experimental groups (see below).
# Animals were weighed, anesthetized with isoflurane, and decapitated. The brains were removed, frozen at −40° C. in 2-methylbutane, and stored at −70° C. Infarct volume was measured by comparing the volume of histologically normal tissue observed in the ischemic hemisphere to the expected volume of normal tissue as derived from measurements of the contralateral, non-ischemic hemisphere [Swanson et al. J. Cereb. Blood Flow Metab. 10:290-293, 1990]. Serial quadruplicate […] coronal sections were taken using a cryotome at […] over the rostral-caudal extent of the infarct. The sections were dried and stained with hematoxylin and eosin. A section from each 660-μm interval was digitized with a video camera controlled by an image analyzer. […] With the observer blinded to experimental condition, the following regions of interest (ROI) were cursor outlined: non-infarcted ipsilateral cerebral cortex, non-infarcted ipsilateral subcortex, contralateral cerebral cortex, and contralateral subcortex. The area within each ROI (mm2) was determined by automated counting of calibrated pixels. Ipsilateral non-infarcted cortex and subcortex areas were subtracted from the corresponding contralateral ROI values to estimate the area of ischemic tissue damage to control for brain edema [Lin et al. Stroke 24:117-121, 1993]. […]
# NF-κB = assay: EMSA of NF-κB DNA binding in nuclear extracts of ischemic brain after MCAO; format: in vivo, rat; conditions: 225 μg/kg IV after 90 min MCAO, ischemic brain harvested six hr later, 2 treated vs 2 vehicle rats
# Method: (§2) Intravenous MnTnHex-2-PyP^5+ (hexyl) decreases post-ischemic NF-κB DNA binding to a κB consensus oligo due inhibition of NF-κB p65 nuclear translocation. Data are from 4 rats subjected to 90 min MCAO and then treated with vehicle or MnTnHex-2-PyP^5+ (225 μg/kg IV). Six hr later, ischemic brain was harvested for EMSA performed on nuclear extracts ([…]). Upper gel (EMSA): D and E (without and with p65 antibody, respectively) are rat #1 (vehicle). F and G (without and with p65 antibody, respectively) are rat #2 (hexyl). H and I=vehicle rat #3 (with and without p65). J and K=rat #4 (hexyl) with and without p65. A-C are control lanes (A=probe only, B=positive control (HeLa nuclear extract), C=cold competitor). Two slower migrating DNA binding complexes are observed (shift). The proteins in the slower migrating complexes were identified by super shift analysis with […] of p65-specific antibody. […] Lower gel: […]) from the same nuclear samples were immunoblotted with NF-κB p65-specific antibody, confirming NF-κB inhibition by MnTnHex-2-PyP^5+.
# NF-κB p65 = assay: Immunoblot of nuclear samples with NF-κB p65-specific antibody after MCAO; format: in vivo, rat; conditions: 225 μg/kg IV after 90 min MCAO; ischemic brain harvested six hr later
# Method: as §2
# TNF-α = assay: Cerebral TNF-α level by ELISA after MCAO; format: in vivo, rat; conditions: 225 μg/kg IV 5 min after reperfusion, s.c. at 12 and 18 hrs post-MCAO; brains harvested 24 hrs post-MCAO; n=3; P=0.04
# Method: (§3) Rats were subjected to 90 min middle cerebral artery occlusion. Five min after onset of reperfusion, rats were randomly treated with vehicle (n=3) or 225 μg/kg IV MnTnHex-2-PyP^5+ (n=3) followed by subcutaneous vehicle or 225 μg/kg MnTnHex-2-PyP^5+, respectively, at 12 and 18 hrs post-MCAO. Brains were harvested at 24 hrs post-MCAO and analyzed for TNF-α and IL-6 by fluorescent enzyme-linked immunosorbent assay. Whole cell lysates from the whole brain tissue were obtained at the end of each experiment according to manufacture's protocol (Roche) with light modification. In brief, about 100 mg of brain tissue, which was diced into small pieces using a clean razor blade on ice, was placed into a pre-chilled microcentrifuge tube and further processed with […] of ice-cold lysis buffer (50 mM Tris-HCl, pH 7.5, 150 mM NaCl, 1% Nonidet P40, 0.5% sodium deoxycholat, 0.1% SDS, protease inhibitors). Samples were homogenized 10 seconds and incubated for 30 minutes on ice. Homogenates were centrifuged at 14,000 g for 10 minutes at 4° C. Supernatants were collected and proteins were measured by a BCA Protein Assay Kit (Thermo Scientific). Cerebral levels of TNF-α and IL-6 were determined by rat specific ELISA kits (Thermo Scientific, IL) and normalized by the total amount of proteins (pg/mg).
# IL-6 = assay: Cerebral IL-6 level by ELISA after MCAO; format: in vivo, rat; conditions: 225 μg/kg IV 5 min after reperfusion, s.c. at 12 and 18 hrs post-MCAO; brains harvested 24 hrs post-MCAO; n=3; P=0.04
# Method: as §3
structure (smiles),measurement,setting,value
"CCCCCC[n+]1ccccc1-c1c2nc(c(-c3cccc[n+]3CCCCCC)c3ccc([n-]3)c(-c3cccc[n+]3CCCCCC)c3nc(c(-c4cccc[n+]4CCCCCC)c4ccc1[n-]4)C=C3)C=C2.[Mn+3] [MnTnHex-2-PyP^5+, Mn(III) 5,10,15,20-tetrakis(N-n-hexylpyridinium-2-yl)porphyrin]",neuroscore (median±interquartile range),"[1]; 72 hrs post-SAH, 225 mg/kg twice per day i.p. begun 60 min post-SAH, n=14, 0=no deficit, maximal deficit 48, P=0.02 vs vehicle (14±21)",2.5±9
same,deaths in treatment group,"[1]; murine SAH, 225 mg/kg twice per day i.p., n=15, three mice died in vehicle group",One mouse in the MnTnHex-2-PyP^5+ group died at 2 days post-SAH
same,right anterior cerebral artery diameter (mean±SD),"[2]; vs vehicle 82±36 μm, P=0.0005",130±19 μm
same,right middle cerebral artery diameter (mean±SD),"[2]; vs vehicle 83±33 μm, P=0.0033",123±29 μm
same,right internal carotid artery diameter (mean±SD),"[2]; vs vehicle 109±35 μm, P=0.015",143±30 μm
same,basilar artery diameter (mean±SD),"[2]; vs vehicle 198±19 μm, P=0.723, no effect of treatment",200±17 μm
same,Neurologic score,"[3]; 225 μg/kg i.v. 5 min after reperfusion onset, P=0.002 vs vehicle",improved
same,Neurologic score,"[3]; 225 μg/kg intra-arterial plus s.c. 6 hours after reperfusion onset, P=0.04 vs vehicle",improved
same,cerebral infarct volume in the subcortex,"[4]; 225 μg/kg i.v. 5 min after reperfusion onset, then twice a day s.c., P=0.01",reduced
same,reduction in total infarct volume,"[4]; 225 μg/kg i.v. 5 min after reperfusion onset, then twice a day s.c., P=0.028",32%
same,cerebral infarct volume in the cortex,"[4]; 225 μg/kg i.v. 5 min after reperfusion onset, then twice a day s.c., P=0.05",reduced
same,cerebral infarct volume in the cortex,"[4]; 225 μg/kg intra-arterial plus s.c. 6 hrs after reperfusion onset, then twice daily s.c., P=0.01",reduced
same,reduction in total infarct volume,"[4]; 225 μg/kg intra-arterial plus s.c. 6 hrs after reperfusion onset, then twice daily s.c., P=0.03",37%
same,Infarct size in the subcortex,"[4]; 225 μg/kg intra-arterial plus s.c. 6 hrs after reperfusion onset, then twice daily s.c., P=0.58",not changed
same,post-ischemic NF-κB DNA binding to a κB consensus oligo (EMSA),NF-κB,Marked reduction
same,NF-κB p65 nuclear translocation (immunoblot of nuclear samples),NF-κB p65,inhibition
same,TNF-α concentration in brain,TNF-α,decreased
same,IL-6 concentration in brain,IL-6,decreased
